Reference: patent US20100062939A1, “Herbicide/Safener Combination Comprising Dimethoxytriazinyl-Substituted Difluoromethanesulfonylanilides” (BAYER CROPSCIENCE AG, priority 2008, published 2010)

Columns and labels:
Assay type in all cases: in vivo
wheat (cultivar: Triso) = experiment: Crop plant compatibility, post-emergence, wheat; conditions: individual compound, no safener
Method: (§1) Seeds of crop plants were placed in sandy loam and then covered with soil. The pots were placed in a greenhouse and kept under good growth conditions for the crop plants. Two weeks after sowing, the test plants were treated at the 1-3 leaf stage. The active compounds of components (A) and (B), formulated in the form of wettable powders, were then sprayed as aqueous suspensions at various dosages onto the green parts of the plants, using an application rate of 300 l of water/ha (converted).
(§2) The visual scoring of the herbicidal effects in the combination with or without safener was carried out after the number of days stated in the tables (DAT=days after treatment). Scoring was carried out in percent in comparison to the untreated control plants (herbicidal activity in %). 0%=no herbicidal activity, 100%=complete herbicidal activity=complete kill.
(§3) The safener action was calculated by comparing the herbicidal activity in % of the herbicide combination without (individual compound) and with safener (combination). The difference of the herbicidal activity in % between the individual compound and the combination was then calculated in percent (safener action in %): 0%=no improvement by addition of safener, 100%=complete improvement by addition of safener=maximum crop plant compatibility.

[1] = system: rice (cultivar: Rice Ballila); experiment: Crop plant compatibility, post-emergence, rice; conditions: individual compound, no safener
Method: as §1, §2, §3

[2] = system: barley (cultivar: Adonis); experiment: Crop plant compatibility, post-emergence, barley; conditions: 17 DAT, individual compound, no safener
Method: as §1, §2, §3

corn (cultivar: Oldham) = experiment: Crop plant compatibility, post-emergence, corn; conditions: 17 DAT, individual compound, component A 20 g of ai/ha, no safener
Method: as §1, §2, §3

[3] = 17 DAT, component A 20 g of ai/ha

COc1nc(OC)nc(C(O)c2cccc(F)c2NS(=O)(=O)C(F)F)n1 (centres unmarked) [compound (A-3)]
Herbicidal activity in % (wheat (cultivar: Triso); 10 DAT, component A 6.7 g of ai/ha): 5%
Herbicidal activity in % (wheat (cultivar: Triso); 17 DAT, component A 2.2 g of ai/ha): 8%
Herbicidal activity in % (wheat (cultivar: Triso); [3]): 20%
Herbicidal activity in % ([1]; 10 DAT, component A 2.2 g of ai/ha): 30%
Herbicidal activity in % [1, 3]: 50%
Herbicidal activity in % ([2]; component A 6.7 g of ai/ha): 10%
Herbicidal activity in % ([2]; component A 20 g of ai/ha): 20%
Herbicidal activity in % (corn (cultivar: Oldham)): 30%
